Source: US12024544B2, “CCN3 and CCN3 peptides and analogs thereof for therapeutic use” (Rosalind Franklin University of Medicine & Science, priority 2010, dated 2024)
Entries after “also recorded” stand apart in the source; their conditions may differ. Where a SMILES comes first, the peptide text is derived from it.

Legend:
Assay type in all cases: cell-based
collagen type I promoter = collagen type I promoter (COL 1a2 promoter-luciferase) assay in TGF-beta stimulated mesangial cells
Method: In a second assay, the ability of the peptide to block the stimulation of collagen type I promoter by TGF-beta was tested. Collagen type I upregulation is a characteristic feature of fibrosis and is often used as an end point determination. TGF-beta is a well-established pro-fibrotic factor or cytokine that mesangial cells and other cells in the fibrotic response respond to by upregulating collagen and other matrix molecule production and accumulation. Several new anti-fibrotic therapies are under development that target the activity of TGF-beta. For the assays used in connection with the present invention, collagen promoter activity was measured as a rapid and early indicator of collagen-related fibrotic activity. The cells in culture were either unstimulated or stimulated by TGF-beta, both in the presence and absence of the selected peptides. If the peptides have inhibitory activity, the promoter activity under TGF-beta stimulation would be reduced to some value approaching the control, non-TGF-beta treated cells. The collagen promoter assay is based on the transfection of mesangial cells with a COL 1a2 promoter linked to luciferase. Therefore, when the promoter is stimulated it can be measured as luciferase units (Riser et al, CCN3 is a negative regulator of CCN2 and a novel endogenous inhibitor of the fibrotic pathway in an in vitro model of renal disease, American J Pathology, 174, 5, 2009). The level of collagen promoter activation (in arbitrary units), is based on a transfection efficiency control (CMV promoter activation).

[1] = system: human chronic myelogenous leukemia cells (K562); conditions: 10 nM
Method: Another potential use of the methods described in the invention is for the treatment of cancers. […] CCNp generated to mimic the effects of the function of CCN3 to prevent, reduce, stop or reverse progression of fibrosis/scarring may also serve to limit cancer growth. […] In untreated cells (Control) and those pre-incubated with quantities (approximately 10 nM) of a commercial recombinant CCN3 (rCCN3c), or full length CCN3 made in our laboratory, represented by several preparations rCCN3 8 (SEQ ID NO: 44), rCCN3 9 (SEQ ID NO: 44), rCCN3 10 (SEQ ID NO: 44), rCCN3 11 (SEQ ID NO: 44), or the peptides CCN p37 or CCN p38 were allowed to grow, then proliferation measured by the CellTiter-Glo® Luminescent Cell Viability Assay Control untreated cells, or cells (McCallum, L et al, CCN3: a key growth regulator in Chronic Myeloid Leukaemia, J Cell Commun Signal. 2009 June; 3(2): 115-124.). The latter is a homogeneous method of determining the number of viable cells in culture based on quantitation of the ATP present, an indicator of metabolically active cells. […] In comparison, CCNp37 produces 15-20% inhibition and CCNp38 approximately 40% inhibition of cell growth. Thus the activity was greater than the full-length CCN3.

human skin fibroblasts = experiment: human skin fibroblast proliferation
Excerpt: (§1) To test this we used a cell culture model of skin healing/scarring, which employed the use of primary human skin fibroblasts derived from foreskins collected post circumcision. These have been used extensively in the past to grown in culture and treated with agents that are known to drive wound healing and or scarring. We were also interested in a rare form of skin fibrosis/scarring that can lead to systemic disease and death known as nephrogenic systemic fibrosis (NSF). NSF is a complication of NMR diagnostics in renal impaired patients, where gadolinium (GAD), a heavy metal, is used as a contrast agent, but in some cases appears to deposit in skin. Although the mechanism for development of skin fibrosis and subsequent systemic disease is not yet completely understood, we have developed a model that has allowed elucidation of the probable pathway to skin fibrosis (Bhagavathula, N., M. K. Dame, M. DaSilva, W. Jenkins, M. N. Aslam, P. Perone and J. Varani (2010)). “Fibroblast response to gadolinium: role for platelet-derived growth factor receptor.” Invest Radiol 45(12): 769-777). This disease is characterized as a hyperproliferative disease, and in our model it was shown that PDGF produced by resident skin fibroblasts are stimulated by GAD to increase their production of PDGF which acts to induce proliferation and the increased production of MMPs, regulators of ECM breakdown and thus turnover, including the major MMP, MMP-1. At the same time tissue inhibitors of MMPs (TIMPs) are also affected by exposure to GAD. […] It appears that local fibroblasts then respond to this increased TGF-beta by increasing their production of ECM, including predominantly collagen type 1.
(§2) We examined the role of CCN3 and CCNp in fibroproliferative/fibrotic responses in human dermal fibroblasts exposed to Omniscan, one of the gadolinium-based contrast agents associated with development of nephrogenic systemic fibrosis. These studies were carried out as we have previously described (Riser, B. L., N. Bhagavathula, P. Perone, K. Garchow, Y. Xu, G. J. Fisher, F. Najmabadi, D. Attili and J. Varani (2012)). “Gadolinium-induced fibrosis is counter-regulated by CCN3 in human dermal fibroblasts: a model for potential treatment of nephrogenic systemic fibrosis.” J Cell Commun Signal 6(2): 97-105.). In our studies, human dermal fibroblasts were exposed to Omniscan; or to PDGF and TGF-β1 as controls. Cellular proliferation was assessed along with MMP-1 (by ELISA and gelatin zymography), TIMP-1 (by ELISA) and COL1 (by ELISA) in the absence and presence of CCN3 and CCNp. CCN3 and CCNp38 was added to cells at 10 nM concentration and at the same time as PDGF. In parallel, CCN3 production was assessed in control and Omniscan-treated cells. In most case the results shown (each bar) are the mean of 3-5 separate experiments, using fibroblasts from different donors. CCN3 was produced in our laboratory from the human embryonic kidney cell line (HEK-293) transfected with the complete human CCN3 gene, and producing an approximate 55 kDa, full-length CCN3 product. A second source of CCN3 was obtained from Pepro Tech Corporation (Rocky Hill, NJ) and is produced in a prokaryote cell line.
(§3) Next we created and tested for efficacy, additional CCNp including those with the cysteines intact (native sequence) from CCNp37 and CCNp38 and those that were modified by either shortening the peptide by 1 or 2 amino acids or lengthening by one amino acid. These agents were added to human skin fibroblasts in increasing concentrations from 1 nM to 100 nM and compared to the equal concentration of CCN3 (SEQ. ID. NO: 67). They were added just prior to the addition of either TGF-beta or PDGF, depending on the experiment.

MMP-1 = MMP-1 production by human skin fibroblasts; conditions: for reduction in PDGF stimulated MMP-1 production: 100 nM, FIG. 27
Excerpt: as §1, §2, §3

pro-collagen type 1 = pro-collagen type 1 production by human skin fibroblasts
Excerpt: To test this we used a cell culture model of skin healing/scarring, which employed the use of primary human skin fibroblasts derived from foreskins collected post circumcision. These have been used extensively in the past to grown in culture and treated with agents that are known to drive wound healing and or scarring. We were also interested in a rare form of skin fibrosis/scarring that can lead to systemic disease and death known as nephrogenic systemic fibrosis (NSF). NSF is a complication of NMR diagnostics in renal impaired patients, where gadolinium (GAD), a heavy metal, is used as a contrast agent, but in some cases appears to deposit in skin. Although the mechanism for development of skin fibrosis and subsequent systemic disease is not yet completely understood, we have developed a model that has allowed elucidation of the probable pathway to skin fibrosis (Bhagavathula, N., M. K. Dame, M. DaSilva, W. Jenkins, M. N. Aslam, P. Perone and J. Varani (2010)). “Fibroblast response to gadolinium: role for platelet-derived growth factor receptor.” Invest Radiol 45(12): 769-777). This disease is characterized as a hyperproliferative disease, and in our model it was shown that PDGF produced by resident skin fibroblasts are stimulated by GAD to increase their production of PDGF which acts to induce proliferation and the increased production of MMPs, regulators of ECM breakdown and thus turnover, including the major MMP, MMP-1. At the same time tissue inhibitors of MMPs (TIMPs) are also affected by exposure to GAD. […]
We examined the role of CCN3 and CCNp in fibroproliferative/fibrotic responses in human dermal fibroblasts exposed to Omniscan, one of the gadolinium-based contrast agents associated with development of nephrogenic systemic fibrosis. […] Cellular proliferation was assessed along with MMP-1 (by ELISA and gelatin zymography), TIMP-1 (by ELISA) and COL1 (by ELISA) in the absence and presence of CCN3 and CCNp. […] In parallel, CCN3 production was assessed in control and Omniscan-treated cells. […]

TIMP-1 = TIMP-1 production by human skin fibroblasts
Excerpt: as §1, §2
Next we created and tested for efficacy, additional CCNp including those with the cysteines intact (native sequence) from CCNp37 and CCNp38 and those that were modified by either shortening the peptide by 1 or 2 amino acids or lengthening by one amino acid. […]

With `CC[C@H](C)[C@H](NC(=O)CNC(=O)[C@@H](NC(=O)[C@H](CCC(N)=O)NC(=O)[C@H](CC(N)=O)NC(=O)[C@H](CC(N)=O)NC(=O)[C@@H]1CCCN1C(=O)[C@H](CC(=O)O)NC(=O)[C@H](C)NC(=O)[C@H](CO)NC(=O)[C@H](CCCNC(=N)N)NC(=O)[C@H](CC(=O)O)NC(=O)[C@@H](N)CO)[C@@H](C)O)C(=O)N[C@@H](CO)C(=O)O` [CCNp38] (H-SDRSADPNNQTGIS-OH) the “inhibition of TGF-β-stimulated collagen promoter activity” value (collagen type I promoter; 500 ng/mL) was “able to inhibit collagen promoter activity”, the “inhibition of TGF-β-stimulated collagen promoter activity” value (collagen type I promoter; peptide screen, FIG. 8) was “reduce collagen promoter stimulation by TGF-β” and the “reduction in growth and/or viability (inhibition of cell growth)” value [1] was “approximately 40%”.

With “CCNp38-3: Human analog CCNp38 with native cysteines replaced with serines, SEQ. ID. No. 56 (SDRSADPSNQTGIS)” the “block of PDGF-stimulated fibroblast proliferation” value (human skin fibroblasts; PDGF, 10 nM, FIG. 15) was “equally well; also recorded: this stimulation is blocked”, the “effect on baseline cell growth” value (human skin fibroblasts; TGF-beta (does not stimulate proliferation), FIG. 16) was “neither CCN3 (SEQ. ID. No. 67) nor CCNp38-3 (Seq. ID. No. 56) has an effect on baseline cell growth” and the “reduction in PDGF stimulated MMP-1 production” value (MMP-1) was “about 60%”. For the same compound, the “block of PDGF-induced increase in MMP-1 activity” value (MMP-1; PDGF, 10 nM, FIG. 17) was “works better than CCN3 protein; also recorded: works as well or better than CCN3 protein”, the “effect on MMP-1 with TGF-beta” value (MMP-1; TGF-beta (no stimulating effect), FIG. 18) was “no effect” and the “reduction of TGF-beta-stimulated pro-collagen type 1 production” value (pro-collagen type 1; 1-100 nM, FIGS. 31-33) was “as effective as CCN3”. For the same compound, the “block of TGF-beta-induced increase in pro-collagen production” value (pro-collagen type 1; TGF-beta, 10 nM, FIG. 21) was “completely block the increase”, the “block of PDGF-induced increase in TIMP-1 production” value (TIMP-1; PDGF, 10 nM, FIG. 19) was “neither CCNp38-3 (Seq. ID. No. 56) nor CCN3 (SEQ. ID. No. 67) is able to block or reduce the increase in TIMP-1 production” and the “effect on TIMP-1 production with TGF-beta” value (TIMP-1; TGF-beta (fails to stimulate), FIG. 20) was “neither CCNp38-3 nor CCN3 have an effect; also recorded: neither CCNp38-3 or CCN3 have an effect”.

For “CCNp37-15: Human or mouse analog with native cysteines replaced with serines and without PH on C-terminal end, SEQ. ID. No. 55 (FSGVSSDGRSST)”, the “block of PDGF stimulated MMP-1 production, comparison of modifications” value (MMP-1; 1 nM to 100 nM, FIGS. 25-27) was “less effective”.

In the case of `CC(C)[C@H](NC(=O)CNC(=O)[C@H](CO)NC(=O)[C@@H](N)Cc1ccccc1)C(=O)N[C@@H](CO)C(=O)N[C@@H](CO)C(=O)N[C@@H](CC(=O)O)C(=O)NCC(=O)N[C@@H](CCCNC(=N)N)C(=O)N[C@@H](CO)C(=O)N[C@@H](CO)C(=O)N[C@H](C(=O)N1CCC[C@H]1C(=O)N[C@@H](Cc1c[nH]cn1)C(=O)O)[C@@H](C)O` [CCNp37] (H-FSGVSSDGRSSTPH-OH), the “inhibition of TGF-β-stimulated collagen promoter activity” value (collagen type I promoter; added 24-hours prior to TGF-β) is reported as “able to produce some activity”, the “inhibition of TGF-β-stimulated collagen promoter activity” value (collagen type I promoter; added 24-hours prior to TGF-β, listed as Peptide 37) is reported as “also present (although to a lower level)” and the “inhibition of TGF-β-stimulated collagen promoter activity” value (collagen type I promoter; added just prior to TGF-β) is reported as “most effective”. The “inhibition of TGF-β-stimulated collagen promoter activity” value (collagen type I promoter; added just prior to TGF-β, listed as Peptide 37) was “ability to totally block TGF-β-stimulated collagen promoter activity”, the “inhibition of TGF-β-stimulated collagen promoter activity” value (collagen type I promoter; peptide screen, FIG. 8) was “reduce collagen promoter stimulation by TGF-β; also recorded: inhibition of TGF-beta stimulated collagen promoter activity; also recorded: more potent than CCNp38” and the “reduction in growth and/or viability (inhibition of cell growth)” value [1] was 15-20%.

For “CCNp38-4: Human native CCNp38, SEQ. ID. No. 50 (CDRSADPSNQTGIC; listed as Homo sapiens)”, the “inhibition of PDGF-stimulated proliferation, comparison of modifications” value (human skin fibroblasts; 1 nM to 100 nM, FIGS. 22-24) was “inhibited proliferation stimulated by PDGF, but was not as effective as the substituted form” and the “reduction in PDGF stimulated MMP-1 production” value (MMP-1) was “about 60%”.
